According to patent publication US8067424B2, “Selective inhibitors for cyclin-dependent kinases” (Emory University, priority 2007, dated 2011):
Like-named read-outs stand apart in the source and are kept apart here.

Tests used:
Type in all cases: biochemical
[1] = molecular target: RSK2 (Homo sapiens, UniProt P51812); test: Kinase screen: MAPKAP-K1b/RSK2 assay
Protocol: (§1) Generally, the same procedure was used for all assays. Since the total assay volume was 25.5 microliters, 0.5 microliters of inhibitors at 51× assay concentration were added to the plates before any other addition.
(§2) The basic procedure was to add 0.5 microliters inhibitor/control in DMSO to plate. Fifteen microliters of enzyme/substrate/buffer mix were added and incubated for 5 min. Ten microliters MgATP at the relevant concentration were added and incubated for 30 min. The assay was stopped by adding 5 microliters of 3% orthophosphoric acid. The assay was transferred to a p81 filter plate and read in a scintillation counter of 30 sec/well. Note that this assay procedure was not followed for MKK1, which instead involved a two-step assay, and PKC alpha, which required the addition of lipid vesicles.
MAPKAP-K1b/RSK2 assay: MAPKAP-K1b (5-20 mU diluted in 20 mM MOPS pH 7.5, 1 mM EDTA, 0.01% Brij35, 5% glycerol, 0.1% b-mercaptoethanol, 1 mg/ml BSA) was assayed against substrate peptide ([…]) (SEQ ID NO: 3) in a final volume of […] containing 50 mM Na-b-glycerophosphate (pH 7.5), 0.5 mM EDTA, 30 μM substrate peptide, 10 mM magnesium acetate and 0.05 mM [33P-g-ATP] (50-1000 cpm/pmole) and incubated for 30 min at room temperature. Assays were stopped by addition of 5 μl of 0.5 M (3%) orthophosphoric acid and then harvested onto P81 Unifilter plates with a wash buffer of 50 mM orthophosphoric acid.

[2] = molecular target: MNK1 (Homo sapiens, UniProt Q9BUB5); test: Kinase screen: MNK1 assay
MNK1, sequence (Q9BUB5 whole entry, species assumed): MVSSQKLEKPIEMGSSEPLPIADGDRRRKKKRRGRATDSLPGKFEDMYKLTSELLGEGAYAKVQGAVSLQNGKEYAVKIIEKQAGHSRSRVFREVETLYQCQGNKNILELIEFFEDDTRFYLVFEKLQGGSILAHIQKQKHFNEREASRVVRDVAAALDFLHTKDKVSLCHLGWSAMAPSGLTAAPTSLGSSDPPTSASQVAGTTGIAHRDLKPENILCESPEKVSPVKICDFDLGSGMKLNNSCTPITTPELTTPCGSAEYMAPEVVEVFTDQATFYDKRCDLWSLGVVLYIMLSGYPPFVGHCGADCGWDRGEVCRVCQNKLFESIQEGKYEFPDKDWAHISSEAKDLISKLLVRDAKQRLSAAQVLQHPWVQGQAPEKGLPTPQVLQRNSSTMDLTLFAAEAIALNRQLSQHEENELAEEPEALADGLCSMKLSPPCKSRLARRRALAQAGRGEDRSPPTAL
Protocol: as §1, §2
MNK1 assay: 5-20 mU of MNK1 (diluted in 50 mM Tris (pH 7.5), 0.1 mM EGTA, 1 mg/ml BSA, 0.1%, b-Mercaptoethanol) was assayed against substrate peptide (eIF4E) in a final volume of 25.5 μl containing 50 mM Tris (pH 7.5), 0.1 mM EGTA, 0.1%, b-Mercaptoethanol, 0.5 mg/ml substrate peptide, 10 mM magnesium acetate and 0.05 mM [33P-g-ATP](500-1000 cpm/pmole) and incubated for 30 mins at room temperature. Assays were stopped by addition of 5 μl of 0.5M (3%) orthophosphoric acid. Assays were harvested onto P81 Unifilter plates using a wash buffer of 50 mM orthophosphoric acid.

[3] = molecular target: T1, PRAK (Homo sapiens, UniProt Q8IW41); test: Kinase screen: PRAK assay
T1 sequence (Q8IW41 1-473): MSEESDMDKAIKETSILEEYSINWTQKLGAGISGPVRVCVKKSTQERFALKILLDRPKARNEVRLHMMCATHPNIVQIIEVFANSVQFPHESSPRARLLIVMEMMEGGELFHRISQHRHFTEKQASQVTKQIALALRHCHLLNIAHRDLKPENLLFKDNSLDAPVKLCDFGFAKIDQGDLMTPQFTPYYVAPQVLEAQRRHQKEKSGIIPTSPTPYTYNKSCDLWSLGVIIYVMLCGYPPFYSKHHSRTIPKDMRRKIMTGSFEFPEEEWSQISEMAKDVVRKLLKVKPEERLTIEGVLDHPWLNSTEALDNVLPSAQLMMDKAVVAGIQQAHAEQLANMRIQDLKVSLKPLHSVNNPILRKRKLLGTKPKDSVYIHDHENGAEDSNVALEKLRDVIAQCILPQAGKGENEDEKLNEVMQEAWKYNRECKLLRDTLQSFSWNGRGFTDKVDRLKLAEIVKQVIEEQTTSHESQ
Protocol: as §1, §2
(50-1000 cpm/pmole) and incubated for 30 min at room temperature. Assays were stopped by addition of 5 μl of 0.5 M (3%) orthophosphoric acid and then harvested onto P81 Unifilter plates with a wash buffer of 50 mM orthophosphoric acid.

[4] = molecular target: T2, IKKβ (Homo sapiens, UniProt O14920); test: Kinase screen: IKKb assay
T2 sequence (O14920 1-756): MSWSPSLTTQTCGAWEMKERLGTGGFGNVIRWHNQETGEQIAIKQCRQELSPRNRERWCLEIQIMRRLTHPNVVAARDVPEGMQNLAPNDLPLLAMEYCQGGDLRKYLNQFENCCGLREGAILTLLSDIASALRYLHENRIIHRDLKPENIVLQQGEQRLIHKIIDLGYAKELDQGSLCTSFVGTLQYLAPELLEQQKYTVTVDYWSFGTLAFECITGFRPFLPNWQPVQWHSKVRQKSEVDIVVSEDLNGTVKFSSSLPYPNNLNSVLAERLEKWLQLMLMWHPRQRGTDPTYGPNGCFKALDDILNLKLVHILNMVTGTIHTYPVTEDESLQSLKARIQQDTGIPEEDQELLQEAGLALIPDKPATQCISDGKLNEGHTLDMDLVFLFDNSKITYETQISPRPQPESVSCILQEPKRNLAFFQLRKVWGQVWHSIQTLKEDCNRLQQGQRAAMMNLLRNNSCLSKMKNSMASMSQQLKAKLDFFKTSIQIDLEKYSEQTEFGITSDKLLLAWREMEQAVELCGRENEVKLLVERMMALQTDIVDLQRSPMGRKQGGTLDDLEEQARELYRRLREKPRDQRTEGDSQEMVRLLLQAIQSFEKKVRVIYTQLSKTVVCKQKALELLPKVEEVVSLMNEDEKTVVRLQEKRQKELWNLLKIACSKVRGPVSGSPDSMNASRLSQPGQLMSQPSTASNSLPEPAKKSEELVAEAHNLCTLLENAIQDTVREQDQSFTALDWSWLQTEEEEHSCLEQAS
Protocol: as §1, §2
IKKb assay: 5-20 mU of IKKb (diluted in 50 mM Tris (pH 7.5), 0.1 mM EGTA, 1 mg/ml BSA, 0.1%, b-Mercaptoethanol) was assayed against substrate peptide ([…]) (SEQ ID NO: 20) in a final volume of 25.5 μl containing 50 mM Tris (pH 7.5), 0.1 mM EGTA, 0.1%, b-Mercaptoethanol, 300 μM substrate peptide, 10 mM magnesium acetate and 0.005 mM [33P-g-ATP] (500-1000 cpm/pmole) and incubated for 30 mins at room temperature. Assays were stopped by addition of 5 µl of 0.5M (3%) orthophosphoric acid. Assays were harvested onto P81 Unifilter plates using a wash buffer of 50 mM orthophosphoric acid.

[5] = 10 micromolar compound, read-out: mean activity remaining (as a percentage of the original activity), RSK2
[6] = 10 micromolar compound, read-out: mean activity remaining (as a percentage of the original activity), MNK1
[7] = 10 micromolar compound, read-out: mean activity remaining (as a percentage of the original activity), PRAK
[8] = 10 micromolar compound, read-out: mean activity remaining (as a percentage of the original activity), IKKb

RSK2, sequence (P51812 whole entry, species assumed): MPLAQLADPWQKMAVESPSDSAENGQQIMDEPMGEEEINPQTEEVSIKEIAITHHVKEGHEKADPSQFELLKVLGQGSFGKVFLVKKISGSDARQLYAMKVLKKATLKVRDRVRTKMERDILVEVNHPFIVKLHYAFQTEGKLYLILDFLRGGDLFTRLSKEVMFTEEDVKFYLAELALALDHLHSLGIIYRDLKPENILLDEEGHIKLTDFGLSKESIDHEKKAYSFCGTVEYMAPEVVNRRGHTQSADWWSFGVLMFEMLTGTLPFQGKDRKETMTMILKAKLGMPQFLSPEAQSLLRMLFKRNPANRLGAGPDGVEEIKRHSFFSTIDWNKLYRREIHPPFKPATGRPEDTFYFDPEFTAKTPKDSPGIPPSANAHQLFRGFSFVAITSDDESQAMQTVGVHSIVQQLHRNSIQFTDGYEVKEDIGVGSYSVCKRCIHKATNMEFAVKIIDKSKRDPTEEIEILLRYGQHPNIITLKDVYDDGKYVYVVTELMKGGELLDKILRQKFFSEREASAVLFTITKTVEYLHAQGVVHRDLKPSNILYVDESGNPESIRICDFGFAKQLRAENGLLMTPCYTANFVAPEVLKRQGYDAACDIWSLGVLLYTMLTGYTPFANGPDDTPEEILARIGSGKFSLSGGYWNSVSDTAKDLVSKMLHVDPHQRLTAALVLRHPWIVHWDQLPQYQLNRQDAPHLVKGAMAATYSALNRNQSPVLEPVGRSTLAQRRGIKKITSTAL

Compound	remaining activity at 10 µM [1, 5] [%]	remaining activity at 10 µM [2, 6] [%]	remaining activity at 10 µM [3, 7] [%]	remaining activity at 10 µM [4, 8] [%]	further results
CC[C@H](CO)Nc1cc(NCc2ccccc2)n2ncc(C(C)C)c2n1 [ICEC0067]	76	86	94	84	
CC(C)c1cnn2c(NCc3ccccc3F)cc(NCCCCCN)nc12 [ICEC-0232]					mean activity remaining (as a percentage of the original activity), RSK2 ([1]; 10 micromolar compound): 19%; mean activity remaining (as a percentage of the original activity), MNK1 ([2]; 10 micromolar compound): 97%; mean activity remaining (as a percentage of the original activity), PRAK ([3]; 10 micromolar compound): 97%; mean activity remaining (as a percentage of the original activity), IKKb ([4]; 10 micromolar compound): 84%
CC(C)c1cnn2c(NCc3ccccc3)cc(NCCCCCCCN)nc12 [BS-181]					remaining activity at 10 µM ([1]; RSK2, 10 μM, read-out: Mean Remaining Enzyme Activity (%)): 55%; remaining activity at 10 µM ([2]; MNK1, 10 μM, read-out: Mean Remaining Enzyme Activity (%)): 105%; remaining activity at 10 µM ([3]; PRAK, 10 μM, read-out: Mean Remaining Enzyme Activity (%)): 115%; remaining activity at 10 µM ([4]; IKKβ, 10 μM, read-out: Mean Remaining Enzyme Activity (%)): 96%
CC(C)c1cnn2c(NCc3ccccc3)cc(N[C@@H](CO)[C@H](O)CO)nc12 [ICEC0318, (3S)-3-(7-(Benzylamino)-3-isopropylpyrazolo[1,5-a]pyrimidin-5-ylamino)butane-1,2,4-triol]	90	98	97	80	
C=C[C@H](CO)Nc1cc(NCc2ccccc2)n2ncc(C(C)C)c2n1 [ICEC0065]	84	90	86	81	
